Measured values published in the supplement of paper PMC10307832.

How the values were obtained:
Test in all cases: relative viability (nuclei count vs DMSO), 5 days (fraction); higher = more cells survive
[1] = compound: COc1cc(-c2nn([C@H]3CC[C@H](N4CCN(C(C)=O)CC4)CC3)c3ncnc(N)c23)ccc1NC(=O)c1cc2ccccc2n1C + CCNC(=O)c1noc(-c2cc(C(C)C)c(O)cc2O)c1-c1ccc(CN2CCOCC2)cc1 [Luminespib] (partner 0.01 µM)
How it was run: (§1)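 Lung cancer cell lines were pin-tool dosed in 1536-well plates on the day after seeding, with either a lone drug or a fixed anchor-drug dose plus five library-drug doses (not always all listed) in √10 steps. Nuclei were counted on 4× images after 5 days. Relative viability is the ratio of treated-well to vehicle-well nuclei counts, with each value a median of duplicate plates.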

Midostaurin + Pictilisib = compound: CO[C@@H]1[C@H](N(C)C(=O)c2ccccc2)C[C@H]2O[C@]1(C)n1c3ccccc3c3c4c(c5c6ccccc6n2c5c31)C(=O)NC4 [Midostaurin] + CS(=O)(=O)N1CCN(Cc2cc3nc(-c4cccc5[nH]ncc45)nc(N4CCOCC4)c3s2)CC1 [Pictilisib] (partner 1 µM)
How it was run: as §1

Midostaurin + Phenformin = compound: CO[C@@H]1[C@H](N(C)C(=O)c2ccccc2)C[C@H]2O[C@]1(C)n1c3ccccc3c3c4c(c5c6ccccc6n2c5c31)C(=O)NC4 [Midostaurin] + N=C(N)NC(=N)NCCc1ccccc1 [Phenformin] (partner 250 µM)
How it was run: as §1

Midostaurin + Navitoclax = compound: CO[C@@H]1[C@H](N(C)C(=O)c2ccccc2)C[C@H]2O[C@]1(C)n1c3ccccc3c3c4c(c5c6ccccc6n2c5c31)C(=O)NC4 [Midostaurin] + CC1(C)CCC(c2ccc(Cl)cc2)=C(CN2CCN(c3ccc(C(=O)NS(=O)(=O)c4ccc(N[C@H](CCN5CCOCC5)CSc5ccccc5)c(S(=O)(=O)C(F)(F)F)c4)cc3)CC2)C1 [Navitoclax] (partner 0.5 µM)
How it was run: as §1

[2] = compound: COc1cc(-c2nn([C@H]3CC[C@H](N4CCN(C(C)=O)CC4)CC3)c3ncnc(N)c23)ccc1NC(=O)c1cc2ccccc2n1C + Cc1nc(NC(=O)N2CCC[C@H]2C(N)=O)sc1-c1ccnc(C(C)(C)C(F)(F)F)c1 [Alpelisib] (partner 2 µM)
How it was run: as §1

Cell Line | relative viability ([1]; first compound 0.0128 µM) | relative viability ([1]; first compound 0.04048 µM) | relative viability ([1]; first compound 0.128 µM) | relative viability ([1]; first compound 1.28 µM) | relative viability (Midostaurin + Pictilisib; first compound 0.01 µM) | relative viability (Midostaurin + Pictilisib; first compound 0.03162 µM) | relative viability (Midostaurin + Pictilisib; first compound 0.1 µM) | relative viability (Midostaurin + Pictilisib; first compound 0.3162 µM) | relative viability (Midostaurin + Phenformin; first compound 0.01 µM) | relative viability (Midostaurin + Phenformin; first compound 0.03162 µM) | relative viability (Midostaurin + Phenformin; first compound 0.1 µM) | relative viability (Midostaurin + Phenformin; first compound 0.3162 µM) | relative viability (Midostaurin + Navitoclax; first compound 0.01 µM) | relative viability (Midostaurin + Navitoclax; first compound 0.03162 µM) | relative viability (Midostaurin + Navitoclax; first compound 0.1 µM) | relative viability (Midostaurin + Navitoclax; first compound 0.3162 µM) | relative viability ([2]; first compound 0.0128 µM) | relative viability ([2]; first compound 0.04048 µM) | relative viability ([2]; first compound 0.128 µM) | relative viability ([2]; first compound 1.28 µM)
HCC-44 | 1.21 | 1.27 | 1.04 | 1.01 | 0.571 | 0.576 | 0.692 | 0.327 | 0.157 | 0.251 | 0.167 | 0.201 | 0.949 | 0.982 | 0.831 | 0.96 | 0.923 | 0.763 | 0.789 | 0.511
HCC-78 | – | – | – | – | 0.216 | 0.216 | 0.229 | 0.19 | 0.797 | 0.603 | 0.693 | 0.462 | 0.835 | 0.638 | 0.815 | 0.341 | 0.376 | 0.361 | 0.322 | 0.281
HCC-366 | – | – | – | – | 0.167 | 0.116 | 0.142 | 0.137 | 0.597 | 0.528 | 0.689 | 0.615 | 1.07 | 1.16 | 1 | 1.06 | 0.444 | 0.374 | 0.418 | 0.259
HCC-827 | 0.633 | 0.66 | 0.816 | 0.203 | 1.03 | 1 | 1.16 | 1.25 | 0.364 | 0.369 | 0.449 | 0.422 | 1.03 | 0.987 | 0.958 | 1.1 | 1.11 | 0.961 | 0.942 | 0.726
HOP-62 | 0.972 | 0.823 | 1 | 0.879 | 0.804 | 0.641 | 0.735 | 1.11 | 0.586 | 0.66 | 0.69 | 0.646 | 0.928 | 0.981 | 0.957 | 1.04 | 1.04 | 0.907 | 0.952 | 0.774
IA-LM | – | – | – | – | 0.405 | – | 0.497 | 0.449 | – | – | – | – | 0.81 | – | 0.701 | 0.631 | 0.838 | 0.803 | 0.783 | 0.84
LC-2-ad | 1.1 | 1.29 | 0.944 | 0.932 | 0.432 | 0.416 | 0.497 | 0.24 | 0.542 | 0.562 | 0.632 | 0.586 | 0.477 | 0.405 | 0.439 | 0.224 | 1.01 | 0.931 | 0.872 | 0.699
LCLC-97TM1 | 0.838 | 0.545 | 0.757 | 0.404 | 0.199 | – | 0.163 | 0.313 | 0.434 | 0.324 | 0.38 | 0.415 | 0.467 | – | 0.393 | 0.508 | 0.252 | 0.203 | 0.226 | 0.319
LCLC-103H | 0.985 | 1.18 | 0.879 | 0.835 | 0.72 | 0.541 | 0.6 | 0.648 | 0.347 | 0.309 | 0.359 | 0.366 | – | – | – | – | 1.02 | 0.938 | 0.88 | 0.775
NCI-H358 | 0.452 | 0.251 | 0.395 | 0.296 | 0.437 | 0.222 | 0.308 | 0.432 | 0.404 | 0.331 | 0.371 | 0.353 | – | – | – | – | 0.725 | 0.747 | 0.76 | 0.555
NCI-H522 | 1.25 | 1.21 | 1.3 | 0.971 | – | – | – | – | 0.596 | 0.706 | 0.655 | 0.753 | – | – | – | – | – | – | – | –
NCI-H650 | 0.731 | 0.861 | 0.941 | 0.754 | 0.829 | 0.794 | 0.835 | 0.628 | 0.403 | 0.413 | 0.437 | 0.322 | – | – | – | – | 1.49 | 1.34 | 1.12 | 1.05
NCI-H661 | 0.901 | 1.08 | 0.948 | 0.946 | 0.397 | 0.386 | 0.33 | 0.438 | 0.279 | 0.286 | 0.261 | 0.311 | – | – | – | – | 0.418 | 0.526 | 0.729 | 0.376
NCI-H1299 | – | – | – | – | 0.838 | 0.73 | 0.527 | 0.273 | – | – | – | – | 1.07 | 0.989 | 1.01 | 1.01 | 1.1 | 1.11 | 1.06 | 1.08
NCI-H1563 | 0.535 | 0.55 | 0.525 | 0.5 | 0.605 | 0.722 | 0.599 | 0.692 | 0.693 | 0.672 | 0.697 | 0.682 | – | – | – | – | 0.876 | 0.918 | 0.998 | 0.865
NCI-H1623 | 0.473 | 0.514 | 0.451 | 0.433 | – | – | – | – | 0.588 | 0.626 | 0.56 | 0.634 | – | – | – | – | – | – | – | –
NCI-H1650 | 0.162 | 0.194 | 0.19 | 0.181 | 0.616 | 0.592 | 0.657 | 0.569 | 0.408 | 0.498 | 0.413 | 0.302 | 1.29 | 1.03 | 1.08 | 0.846 | – | – | – | –
NCI-H1703 | – | – | – | – | 0.276 | 0.226 | 0.245 | 0.197 | – | – | – | – | 1.21 | 0.974 | 0.75 | 0.312 | 0.372 | 0.243 | 0.228 | 0.157
NCI-H2342 | 0.723 | 0.717 | 0.87 | 0.61 | – | – | – | – | 0.657 | 0.561 | 0.587 | 0.643 | – | – | – | – | – | – | – | –
SW 900 | 0.178 | 0.175 | 0.184 | 0.159 | – | – | – | – | 0.608 | 0.451 | 0.653 | 0.395 | – | – | – | – | – | – | – | –
